23 compounds from patent US11560372B2, “Heterocyclic compounds useful as modulators of acetylcholine receptors” (TAKEDA PHARMACEUTICAL COMPANY LIMITED, priority 2017, dated 2023) can be followed below.

In the data set the target is T1, MDR1 (Homo sapiens, UniProt P08183).
T1 construct: expressed in transfected cells
T1 sequence (P08183 whole entry): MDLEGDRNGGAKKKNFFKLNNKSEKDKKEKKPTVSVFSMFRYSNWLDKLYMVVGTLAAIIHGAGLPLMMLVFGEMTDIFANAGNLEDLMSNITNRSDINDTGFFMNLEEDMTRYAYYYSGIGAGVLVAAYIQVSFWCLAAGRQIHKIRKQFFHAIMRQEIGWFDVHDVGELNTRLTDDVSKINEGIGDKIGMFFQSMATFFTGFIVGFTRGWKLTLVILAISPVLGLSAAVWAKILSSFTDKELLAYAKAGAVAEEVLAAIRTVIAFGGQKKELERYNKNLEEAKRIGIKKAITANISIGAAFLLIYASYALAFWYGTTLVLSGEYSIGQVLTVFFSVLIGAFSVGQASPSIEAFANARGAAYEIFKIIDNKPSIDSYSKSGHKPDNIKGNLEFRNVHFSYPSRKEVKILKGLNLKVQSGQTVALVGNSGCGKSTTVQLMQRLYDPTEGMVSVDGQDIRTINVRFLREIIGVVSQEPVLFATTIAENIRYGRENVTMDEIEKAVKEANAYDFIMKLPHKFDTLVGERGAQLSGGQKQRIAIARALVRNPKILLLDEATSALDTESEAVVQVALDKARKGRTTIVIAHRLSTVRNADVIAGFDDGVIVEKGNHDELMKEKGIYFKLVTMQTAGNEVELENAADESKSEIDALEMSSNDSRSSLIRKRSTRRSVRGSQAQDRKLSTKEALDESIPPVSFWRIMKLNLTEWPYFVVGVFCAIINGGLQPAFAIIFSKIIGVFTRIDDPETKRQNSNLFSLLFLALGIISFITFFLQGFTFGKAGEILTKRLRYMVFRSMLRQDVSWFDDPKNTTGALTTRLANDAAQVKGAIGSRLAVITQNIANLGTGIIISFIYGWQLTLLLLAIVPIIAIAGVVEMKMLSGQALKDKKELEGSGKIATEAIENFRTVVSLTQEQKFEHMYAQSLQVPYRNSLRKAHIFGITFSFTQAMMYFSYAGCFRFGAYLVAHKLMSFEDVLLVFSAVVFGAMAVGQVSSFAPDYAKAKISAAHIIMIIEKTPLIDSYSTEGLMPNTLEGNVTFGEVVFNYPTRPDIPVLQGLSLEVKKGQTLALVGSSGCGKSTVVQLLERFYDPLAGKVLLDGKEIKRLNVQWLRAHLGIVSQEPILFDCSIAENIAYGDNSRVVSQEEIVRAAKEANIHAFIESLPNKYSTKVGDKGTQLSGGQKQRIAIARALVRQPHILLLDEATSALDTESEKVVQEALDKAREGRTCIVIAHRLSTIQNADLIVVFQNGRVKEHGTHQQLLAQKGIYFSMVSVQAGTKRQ
Description: MDR1 membrane permeability test. Format: in vitro ADME. The settings on record: pH 7.4, efflux ratio (ER), Papp B to A / A to B, human MDR1-expressing LLC-PK1 cells, read-out: MDR1 substrate screening 1 μM (MDRSUB1)/Ratio (NUMBER). The method, then:
MDR1 Membrane Permeability Test
When MDR1 is expressed in excess in LLC-PK1 cell, which is a polar cell, MDR1 is localized in apical membrane (A), thus promoting transcellular transport from the basement membrane side (B) toward direction A. When a ratio to the transcellular transport in the opposite direction is taken and a ratio to a control cell in which a mock vector has been introduced is further taken, an efflux ratio of MDR1 to simple diffusion (corrected efflux ratio) is calculated. Similarly, when a brain/plasma concentration ratio in Mdr1(−/−) mouse is divided by a brain/plasma concentration ratio in wild-type mouse, an efflux ratio of Mdr1 to simple diffusion in BBB (Kp, brain ratio, higher value means lower central nervous system permeability) is calculated. Adachi Y. et al. (Reference 1) has reported a positive correlation between corrected efflux ratio and Kp, brain ratio (FIG. 5(C)), and efflux ratio in MDR1 expressing cell and Kp, brain ratio (FIG. 5(B)).
To confirm the central nervous system permeability of the compounds of the present invention, a MDR1 membrane permeability test was performed by the following method.
Human MDR1-expressing LLC-PK1 cells were cultured according to the report of Takeuchi et al. (Reference 2). Human MDR1-expressing LLC-PK1 cells were cultured in 10% fetal bovine serum (Invitrogen), 500 μg/ml G418 (Invitrogen), 150 ng/ml colchicine-containing M199 medium (Invitrogen) under 5% CO2 conditions at 37° C.
Transcellular transport was performed according to the report of Sugimoto et al. (Reference 3). The cells were cultured for 3 days on HTS Transwell (registered trademark) 96 well permeable support (pore size 0.4 μm, 0.143 cm^2 surface area, Corning Life Sciences) having polyethylene terephthalate membrane on which the cells had been seeded at 3.45×10^4 cells/well. After preincubation in M199 medium (containing 10 mmol/L HEPES, 1% BSA, pH 7.4) for 30 min, a drug solution (10 μmol/L digoxin, 200 μmol/L LY, […]) dissolved in M199 medium was added to the apical side or basolateral side of the Transwell by 75 or 250 μL each and the cells were cultured under 5% CO2 conditions at 37° C. After 1 hr, the sample was collected from the side opposite to the side where the drug solution was added, and the concentration of the test compound was measured by LC-MS/MS. As an internal standard substance, 100 ng/mL alprenolol and diclofenac were used. The analysis conditions were as follows.
Papp, A to B and Papp, B to A (apparent permeability) were calculated from the formula (1), and the efflux ratio (ER) was calculated from the formula (2).
Take `Cc1nn(C)cc1-c1ccc(Cc2cc3c(=O)n([C@H]4CCOC[C@@H]4O)cnc3c(F)c2C)cn1` [Example 23, 1,5-anhydro-2,3-dideoxy-3-(6-((6-(1,3-dimethyl-1H-pyrazol-4-yl)pyridin-3-yl)methyl)-8-fluoro-7-methyl-4-oxoquinazolin-3(4H)-yl)-L-threo-pentitol]: the efflux ratio at 1 hr, 1 μM was 19.

As to `Cc1c(Cc2ccc(C(=O)NC3(C)COC3)cc2)cc2c(=O)n([C@H]3CCOC[C@@H]3O)cnc2c1C` [Example 26, 1,5-anhydro-2,3-dideoxy-3-(7,8-dimethyl-6-(4-((3-methyloxetan-3-yl)carbamoyl)benzyl)-4-oxoquinazolin-3(4H)-yl)-L-threo-pentitol], the efflux ratio at 1 hr, 1 μM came out at 24.

Consider `CCNC(=O)c1ccc(Cc2cc3c(=O)n([C@H]4CCOC[C@@H]4O)cnc3c(C)c2C)cc1` [Example 28, 1,5-anhydro-2,3-dideoxy-3-(6-(4-(ethylcarbamoyl)benzyl)-7,8-dimethyl-4-oxoquinazolin-3 (4H)-yl)-L-threo-pentitol], for which the efflux ratio at 1 hr, 1 μM was 11.

As for `Cc1c(Cc2ccc(C(=O)NCC(=O)N(C)C)cc2)cc2c(=O)n([C@H]3CCOC[C@@H]3O)cnc2c1C` [Example 30, 1,5-anhydro-2,3-dideoxy-3-(6-(4-((2-(dimethylamino)-2-oxoethyl)carbamoyl)benzyl)-7,8-dimethyl-4-oxoquinazolin-3 (4H)-yl)-L-threo-pentitol], the efflux ratio at 1 hr, 1 μM is 24.

Consider `COC(C)(C)CNC(=O)c1ccc(Cc2cc3c(=O)n([C@H]4CCOC[C@@H]4O)cnc3c(C)c2C)cc1` [Example 31, 1,5-anhydro-2,3-dideoxy-3-(6-(4-((2-methoxy-2-methylpropyl)carbamoyl)benzyl)-7,8-dimethyl-4-oxoquinazolin-3 (4H)-yl)-L-threo-pentitol], for which the efflux ratio at 1 hr, 1 μM is 12.

`Cc1c(Cc2ccc(C(=O)NC3CCOCC3)cc2)cc2c(=O)n([C@H]3CCOC[C@@H]3O)cnc2c1C` [Example 32, 1,5-anhydro-2,3-dideoxy-3-(7,8-dimethyl-4-oxo-6-(4-(tetrahydro-2H-pyran-4-ylcarbamoyl)benzyl)quinazolin-3 (4H)-yl)-L-threo-pentitol]: the efflux ratio at 1 hr, 1 μM was 26.

For the compound `Cc1c(Cc2ccc(C(=O)NCCCF)cc2)cc2c(=O)n([C@H]3CCOC[C@@H]3O)cnc2c1C` [Example 34, 1,5-anhydro-2,3-dideoxy-3-(6-(4-((3-fluoropropyl)carbamoyl)benzyl)-7,8-dimethyl-4-oxoquinazolin-3 (4H)-yl)-L-threo-pentitol], the efflux ratio at 1 hr, 1 μM was found to be 20.

As to `Cc1c(Cc2ccc(C(=O)NC3(C(F)F)CC3)cc2)cc2c(=O)n([C@H]3CCOC[C@@H]3O)cnc2c1C` [Example 35, 1,5-anhydro-2,3-dideoxy-3-(6-(4-((1-(difluoromethyl)-cyclopropyl)carbamoyl)benzyl)-7,8-dimethyl-4-oxoquinazolin-3 (4H)-yl)-L-threo-pentitol], the efflux ratio at 1 hr, 1 μM stood at 9.

With `Cc1c(Cc2ccc(C(=O)NC(C)C)cc2)cc2c(=O)n([C@H]3CCOC[C@@H]3O)cnc2c1C` [Example 36, 1,5-anhydro-2,3-dideoxy-3-(6-(4-(isopropylcarbamoyl)benzyl)-7,8-dimethyl-4-oxoquinazolin-3 (4H)-yl)-L-threo-pentitol], the efflux ratio at 1 hr, 1 μM stood at 11.

With `Cc1c(Cc2ccc(C(=O)NCCF)cc2)cc2c(=O)n([C@H]3CCOC[C@@H]3O)cnc2c1C` [Example 37, 1,5-anhydro-2,3-dideoxy-3-(6-(4-((2-fluoroethyl)carbamoyl)benzyl)-7,8-dimethyl-4-oxoquinazolin-3 (4H)-yl)-L-threo-pentitol], the efflux ratio at 1 hr, 1 μM was found to be 12.

As to `COCCCNC(=O)c1ccc(Cc2cc3c(=O)n([C@H]4CCOC[C@@H]4O)cnc3c(C)c2C)cc1` [Example 38, 1,5-anhydro-2,3-dideoxy-3-(6-(4-((3-methoxypropyl)carbamoyl)benzyl)-7,8-dimethyl-4-oxoquinazolin-3 (4H)-yl)-L-threo-pentitol], the efflux ratio at 1 hr, 1 μM was 15.

Regarding `Cc1c(Cc2ccc(C(=O)N3CC(O)C3)cc2)cc2c(=O)n([C@H]3CCOC[C@@H]3O)cnc2c1C` [Example 40, 1,5-anhydro-2,3-dideoxy-3-(6-(4-((3-hydroxyazetidin-1-yl)carbonyl)benzyl)-7,8-dimethyl-4-oxoquinazolin-3 (4H)-yl)-L-threo-pentitol], the efflux ratio at 1 hr, 1 μM worked out at 12.

On to `Cc1c(Cc2ccc(C(=O)NC34CC(C3)C4)cc2)cc2c(=O)n([C@H]3CCOC[C@@H]3O)cnc2c1C` [Example 42, 1,5-anhydro-3-(6-(4-(bicyclo[1.1.1]penta-1-ylcarbamoyl)benzyl)-7,8-dimethyl-4-oxoquinazolin-3 (4H)-yl)-2,3-dideoxy-L-threo-pentitol], for which the efflux ratio at 1 hr, 1 μM stood at 5.9.

With `Cc1c(Cc2ccc(C(=O)NC3(C)CC3)cc2)cc2c(=O)n([C@H]3CCOC[C@@H]3O)cnc2c1C` [Example 43, 1,5-anhydro-2,3-dideoxy-3-(7,8-dimethyl-6-(4-((1-methylcyclopropyl)carbamoyl)-benzyl)-4-oxoquinazolin-3 (4H)-yl)-L-threo-pentitol], the efflux ratio at 1 hr, 1 μM is 12.

As to `Cc1c(Cc2ccc(C(=O)NC3CC3)cc2)cc2c(=O)n([C@H]3CCOC[C@@H]3O)cnc2c1C` [Example 44, 1,5-anhydro-3-(6-(4-(cyclopropylcarbamoyl)benzyl)-7,8-dimethyl-4-oxoquinazolin-3 (4H)-yl)-2,3-dideoxy-L-threo pentitol], the efflux ratio at 1 hr, 1 μM was determined as 22.

For `Cc1c(Cc2ccc(C(=O)NCC3CCCO3)cc2)cc2c(=O)n([C@H]3CCOC[C@@H]3O)cnc2c1C` (stereo partly drawn) [Example 45, 1,5-anhydro-2,3-dideoxy-3-(7,8-dimethyl-4-oxo-6-(4-((tetrahydrofuran-2-ylmethyl)carbamoyl)benzyl)quinazolin-3 (4H)-yl)-L-threo-pentitol], the efflux ratio at 1 hr, 1 μM was determined as 23.

For `Cc1c(Cc2ccc(C(=O)NC3CC(F)C3)cc2)cc2c(=O)n([C@H]3CCOC[C@@H]3O)cnc2c1C` (stereo partly drawn) [Example 46, 1,5-anhydro-2,3-dideoxy-3-(6-(4-((3-fluorocyclobutyl)-carbamoyl)benzyl)-7,8-dimethyl-4-oxoquinazolin-3 (4H)-yl)-L-threo-pentitol], the efflux ratio at 1 hr, 1 μM came to 18.

Consider `Cc1c(Cc2ccc(C(=O)NCCN3CCOCC3)cc2)cc2c(=O)n([C@H]3CCOC[C@@H]3O)cnc2c1C` [Example 47, 1,5-anhydro-2,3-dideoxy-3-(7,8-dimethyl-6-(4-((2-(morpholin-4-yl)ethyl)carbamoyl)benzyl)-4-oxoquinazolin-3 (4H)-yl)-L-threo-pentitol], for which the efflux ratio at 1 hr, 1 μM turned out to be 24.

For `Cc1c(Cc2ccc(C(=O)NC(C)(C)CO)cc2)cc2c(=O)n([C@H]3CCOC[C@@H]3O)cnc2c1C` [Example 48, 1,5-anhydro-2,3-dideoxy-3-(6-(4-((1-hydroxy-2-methylpropan-2-yl)carbamoyl)benzyl)-7,8-dimethyl-4-oxoquinazolin-3 (4H)-yl)-L-threo-pentitol], the efflux ratio at 1 hr, 1 μM amounted to 24.

Take `Cc1c(Cc2ccc(C(=O)NCC3CCOCC3)cc2)cc2c(=O)n([C@H]3CCOC[C@@H]3O)cnc2c1C` [Example 51, 1,5-anhydro-2,3-dideoxy-3-(7,8-dimethyl-4-oxo-6-(4-((tetrahydro-2H-pyran-4-ylmethyl)carbamoyl)-benzyl)quinazolin-3 (4H)-yl)-L-threo-pentitol]: the efflux ratio at 1 hr, 1 μM was 27.

On to `Cc1c(Cc2ccc(C(=O)N3CC(C(F)F)C3)cc2)cc2c(=O)n([C@H]3CCOC[C@@H]3O)cnc2c1C` [Example 52, 1,5-anhydro-2,3-dideoxy-3-(6-(4-((3-(difluoromethyl)azetidin-1-yl)carbonyl)benzyl)-7,8-dimethyl-4-oxoquinazolin-3 (4H)-yl)-L-threo-pentitol], for which the efflux ratio at 1 hr, 1 μM is 18.

As for `Cc1c(Cc2ccc(C(=O)NCCC(F)(F)F)cc2)cc2c(=O)n([C@H]3CCOC[C@@H]3O)cnc2c1C` [Example 53, 1,5-anhydro-2,3-dideoxy-3-(7,8-dimethyl-4-oxo-6-(4-((3,3,3-trifluoropropyl)carbamoyl)-benzyl)quinazolin-3 (4H)-yl)-L-threo-pentitol], the efflux ratio at 1 hr, 1 μM was 8.3.

For the compound `CNC(=O)c1ccc(Cc2cc3c(=O)n([C@H]4CCOC[C@@H]4O)nnc3c(C)c2C)cc1F` [Example 55, 1,5-anhydro-2,3-dideoxy-3-(6-(3-fluoro-4-(methylcarbamoyl)benzyl)-7,8-dimethyl-4-oxo-1,2,3-benzotriazin-3 (4H)-yl)-L-threo-pentitol], the efflux ratio at 1 hr, 1 μM was found to be 3.2.
